What was measured:
[1] = test system: Human immunodeficiency virus; test: Antiviral activity against HIV LAI infected in human MT-2 cells assessed as inhibition of viral growth; format: functional, organism-based; settings: Human immunodeficiency virus 1, LAI, MT2
[2] = biological target: Human immunodeficiency virus type 1 protease (Human immunodeficiency virus 1, UniProt Q72874); test: Inhibition of HIV-1 protease using Abz-NF-6 as substrate assessed as inhibition constant measured every 2 mins for 20 mins by fluorescence based […] analysis
[3] = test system: Human immunodeficiency virus; test: Potency index, ratio of test compound IC50 to darunavir IC50 for antiviral activity against HIV LAI infected in human MT-2 cells assessed as inhibition of viral growth; format: functional, MT2

Compound | IC50 [1] [nM] | Ki [2] [nM] | Ratio IC50 [3]
CC(C)CN(C[C@@H](O)[C@H](Cc1ccccc1)NC(=O)O[C@H]1CO[C@H]2OCC[C@H]21)S(=O)(=O)c1ccc(C(N)=O)cc1 | 93 | – | –
CC(C)CN(C[C@@H](O)[C@H](Cc1ccccc1)NC(=O)O[C@H]1CO[C@H]2OCC[C@H]21)S(=O)(=O)c1ccc(NC(=O)CNC(=O)OC(C)(C)C)cc1 | – | 310 | –
CC(C)CN(C[C@@H](O)[C@H](Cc1ccccc1)NC(=O)O[C@H]1CO[C@H]2OCC[C@H]21)S(=O)(=O)c1ccc(NC(=O)[C@H](NC(=O)OC(C)(C)C)C(C)C)cc1 | 430 | 337 | –
CC(C)CN(C[C@@H](O)[C@H](Cc1ccccc1)NC(=O)O[C@H]1CO[C@H]2OCC[C@H]21)S(=O)(=O)c1ccc(C(=O)O)cc1 | > 1000 | – | –
CC(C)CN(C[C@@H](O)[C@H](Cc1ccccc1)NC(=O)O[C@H]1CO[C@H]2OCC[C@H]21)S(=O)(=O)c1ccc(NC(=O)[C@@H](N)C(C)C)cc1 | 25 | 0.445 | –
CC(C)CN(C[C@@H](O)[C@H](Cc1ccccc1)NC(=O)O[C@H]1CO[C@H]2OCC[C@H]21)S(=O)(=O)c1ccc(NC(=O)CN[C@H](C)c2ccccc2)cc1 | 39 | 0.0053 | –
CCNCC(=O)Nc1ccc(S(=O)(=O)N(CC(C)C)C[C@@H](O)[C@H](Cc2ccccc2)NC(=O)O[C@H]2CO[C@H]3OCC[C@H]32)cc1 | 280 | 0.0091 | –
CC(=O)Nc1ccc(S(=O)(=O)N(CC(C)C)C[C@@H](O)[C@H](Cc2ccccc2)NC(=O)O[C@H]2CO[C@H]3OCC[C@H]32)cc1 | 29 | 0.0006 | 10
CC(C)CN(C[C@@H](O)[C@H](Cc1ccccc1)NC(=O)O[C@H]1CO[C@H]2OCC[C@H]21)S(=O)(=O)c1ccc(NC(=O)CCl)cc1 | 32 | 0.0044 | –
CC(C)CN(C[C@@H](O)[C@H](Cc1ccccc1)NC(=O)O[C@H]1CO[C@H]2OCC[C@H]21)S(=O)(=O)c1ccc(N)cc1 | 1.6 | – | –
CC(C)CN(C[C@@H](O)[C@H](Cc1ccccc1)NC(=O)O[C@H]1CO[C@H]2OCC[C@H]21)S(=O)(=O)c1ccc(NC(=O)[C@@H](NC(=O)OC(C)(C)C)C(C)C)cc1 | 540 | 178 | –
CC(C)CN(C[C@@H](O)[C@H](Cc1ccccc1)NC(=O)O[C@H]1CO[C@H]2OCC[C@H]21)S(=O)(=O)c1ccc(NC(=O)CN)cc1 | – | 0.0921 | –
CC(C)CN(C[C@@H](O)[C@H](Cc1ccccc1)NC(=O)O[C@H]1CO[C@H]2OCC[C@H]21)S(=O)(=O)c1ccc(NC(=O)CN(C)C)cc1 | > 1000 | 0.0015 | –
CC(C)CN(C[C@@H](O)[C@H](Cc1ccccc1)NC(=O)O[C@H]1CO[C@H]2OCC[C@H]21)S(=O)(=O)c1ccc(NC(=O)CNC(C)C)cc1 | 31 | 0.388 | –
CCN(CC)CC(=O)Nc1ccc(S(=O)(=O)N(CC(C)C)C[C@@H](O)[C@H](Cc2ccccc2)NC(=O)O[C@H]2CO[C@H]3OCC[C@H]32)cc1 | > 1000 | 0.302 | –

From ChEMBL document CHEMBL5252561, “Evaluation of darunavir-derived HIV-1 protease inhibitors incorporating P2' amide-derivatives: Synthesis, biological evaluation and structural studies” (Bioorg Med Chem Lett, 2023)
